Data on three compounds can be found in US20240140991A1, “ANTIBIOTIC NATURAL PRODUCT ANALOGUES” (THE QUEEN'S UNIVERSITY OF BELFAST, priority 2021, published 2024).

In brackets after ≈: the same amount, converted by molar mass. Like-named read-outs stand apart in the source and are kept apart here. Positions of bridges follow the written chain, without caps; N, C: chain ends. Non-standard residues stand in square brackets, D forms with d. Residues, ends and D or L forms follow the SMILES beside them. ξ: configuration not given here. *: point of attachment. Hexanoyl(4ξ-Me) = CCC(C)CCC(=O)*; dOrn = NCCC[C@@H](N)C(=O)O; Orn = NCCC[C@H](N)C(=O)O; Dap = NC[C@H](N)C(=O)O

One assay deals with K. pneumoniae 2048. Format: cell-based, Klebsiella pneumoniae. How it is done: (§1) Minimum inhibitory concentration (MIC) was determined by broth microdilution according to CLSI guidelines. Blood agar plates were inoculated with glycerol stocks of Escherichia coli ATCC 25922, E. coli ATCC 25922 MCR-1, E. coli MCR-1 (clinical isolate from Utrecht Medical Center, NL), E. coli EQAS MCR-2 (clinical isolate from Wageningen University and Research, NL), Kiebsielia pneumoniae ATCC 11228, K. pneumoniae ATCC 13883, K. pneumonia 2048 (clinical isolate from Vrije Universiteit Amsterdam Medical Center, NL), K. pneumonia JS-123 (clinical isolate from Utrecht Medical Center, NL), Acinetobacter baumannii ATCC 17961, A. baumannil ATCC 17978, A. baumannii 2018-006 (clinical isolate from Rijksinstituut voor Volksgezondheid en Milieu, NL), A. baumannii MDR (clinical isolate from Vrije Universiteit Amsterdam Medical Center, NL), Pseudomonas aeruginosa ATCC 27853, P. aeruginosa PAO1, P. aeruginosa NRZ-03961 (Reference strain from Das Nationale Referenzzentrum für gramnegative Krankenhauserreger, DE), P. aeruginosa M-120 (clinical isolate from Leiden University Medical Center, NL) and Staphylococcus aureus USA300 (clinical isolate from Texas Children's Hospitalm, USA). E. coli 25922 MCR1 was grown on LB agar supplemented with kanamycin. The inoculated agar plates were then incubated for 16 hours at 37° C. Individually grown colonies were subsequently used to inoculate 3 mL aliquots of TSB that were then incubated at 37° C. with shaking at 220 rpm. In parallel, the compounds to be assessed were serially diluted with Mueller-Hinton broth (MHB) in polypropylene 96-well plates (50 μL in each well). Once the OD600 of the bacterial suspensions reached 0.5, the bacteria were diluted with MHB (final concentration 2×10^5 CFU mL^−1) and added to the microplates containing the test compounds (50 μL to each well, final volume: 100 μL). The well-plates were sealed with an adhesive membrane and after 16 hours of incubation at 37° C. with shaking at 220 rpm the wells were visually inspected for bacterial growth. MIC values were defined as the lowest concentration of the compound that prevented visible growth of bacteria.

In a further assay the test system is K. pneumoniae ATCC 13883. It is filed as cell-based, Klebsiella pneumoniae. The procedure:
as §1

Another assay relates to K. pneumoniae ATCC 11228. Format: cell-based, Klebsiella pneumoniae. The procedure: as §1
For the next assay, the system named is K. pneumoniae JS-123. It is filed as cell-based, Klebsiella pneumoniae. The procedure: as §1
Assay [1] deals with Escherichia coli ATCC 25922. It is filed as cell-based. The essentials: (§2)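 Broth microdilution in MHB per CLSI; inoculum 2×10^5 CFU mL^−1 from log-phase TSB cultures at OD600 0.5. Plates incubated 16 hours at 37° C with shaking at 220 rpm. MIC is the lowest concentration preventing visible growth.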
For assay [2], the system named is Acinetobacter baumannii ATCC 17961. It is filed as cell-based. A digest of the protocol:
as §2

The subject of assay [3] is Pseudomonas aeruginosa ATCC 27853. It is filed as cell-based. A digest of the protocol:
as §2

Assay [4] has as its system Staphylococcus aureus USA300. It is filed as cell-based. The essentials: as §2
A further assay concerns P. aeruginosa M-120. Format: cell-based, Pseudomonas aeruginosa. The procedure: as §1
The test system of the next assay is P. aeruginosa PAO1. It is filed as cell-based, Pseudomonas aeruginosa. The procedure: as §1
The test system of another assay is P. aeruginosa NRZ-03961. Format: cell-based, Pseudomonas aeruginosa. The procedure:
as §1

For the next assay, the system named is A. baumannii MDR. Format: cell-based, Acinetobacter baumannii. The note with it: A. baumannii MDR clinical isolate. How it is done:
as §1

In another assay the test system is A. baumannii ATCC 17978. Format: cell-based, Acinetobacter baumannii. The procedure: as §1
In another assay the test system is A. baumannii 2018-006. It is filed as cell-based, Acinetobacter baumannii. How it is done:
as §1

The next assay concerns E. coli ATCC 25922 MCR-1. Format: cell-based, Escherichia coli. The note with it: E. coli ATCC 25922 MCR-1 (colistin resistant). How it is done: as §1
(§3) In the table above, “MCR” denotes that one of the MCR family of genes, which confers colistin resistance, is present in the bacterial strain. Thus, E. coli ATCC 25922 MCR-1, E. coli MCR-1 and E. coli EQAS MCR-2 are each colistin resistant. […] Therefore, laterocidamide may overcome some of the challenges faced due to antibiotic resistance.

The subject of the next assay is E. coli MCR-1. It is filed as cell-based, Escherichia coli. The note with it: E. coli MCR-1 clinical isolate (colistin resistant). The procedure: as §1, §3
The test system of another assay is E. coli EQAS MCR-2. It is filed as cell-based, Escherichia coli. The note with it: E. coli EQAS MCR-2 clinical isolate (colistin resistant). The procedure:
as §1, §3

In the case of `CCC(C)CCC(=O)N[C@H](CC(N)=O)C(=O)N[C@H](Cc1ccc(O)cc1)C(=O)N[C@H](Cc1c[nH]c2ccccc12)C(=O)N[C@H](CCCN)C(=O)N[C@@H](CCCN)C(=O)NCC(=O)N[C@H](CCCN)C(=O)N[C@@H](Cc1c[nH]c2ccccc12)C(=O)N[C@H]1COC(=O)[C@H](CO)NC(=O)CNC(=O)[C@H]([C@@H](C)CC)NC1=O` (single isomer, unassigned) [Ser9-Brevicidine], the “Minimum inhibitory concentration (MIC)” value was 4 µg/mL (≈ 2.66 µM) with K. pneumoniae 2048 (2048); 2 µg/mL (≈ 1.33 µM) in the assay with K. pneumoniae ATCC 13883 (ATCC 13883); 2 µg/mL (≈ 1.33 µM) in the assay with K. pneumoniae ATCC 11228 (ATCC 11228); 2 µg/mL (≈ 1.33 µM) in the assay with K. pneumoniae JS-123 (JS-123); 4 µg/mL (≈ 2.66 µM) in assay [1] (ATCC 25922); 0.5 to 1 µg/mL in assay [2] (ATCC 17961). Moreover, the “Minimum inhibitory concentration (MIC)” value in assay [3] (ATCC 27853) is 1 µg/mL (≈ 0.664 µM); in assay [4] (USA300), >64 µg/mL; in the assay with P. aeruginosa M-120 (M-120), 2 µg/mL (≈ 1.33 µM); in the assay on P. aeruginosa PAO1 (PAO1) it was 2 to 4 µg/mL; in the assay on P. aeruginosa NRZ-03961 (NRZ-03961) it was 4 µg/mL (≈ 2.66 µM); with A. baumannii MDR, 1 to 2 µg/mL. Moreover, the “Minimum inhibitory concentration (MIC)” value is 2 µg/mL (≈ 1.33 µM) in the assay with A. baumannii ATCC 17978 (ATCC 17978); 2 µg/mL (≈ 1.33 µM) in the assay on A. baumannii 2018-006 (2018-006); 4 µg/mL (≈ 2.66 µM) with E. coli ATCC 25922 MCR-1; 2 µg/mL (≈ 1.33 µM) in the assay with E. coli MCR-1; 4 to 8 µg/mL in the assay on E. coli EQAS MCR-2.
In the case of `CCC(C)CCC(=O)N[C@H](CO)C(=O)N[C@H](Cc1ccc(O)cc1)C(=O)N[C@H](Cc1c[nH]c2ccccc12)C(=O)N[C@H](CCCN)C(=O)N[C@@H](CCCN)C(=O)NCC(=O)N[C@H](CCCN)C(=O)N[C@@H](Cc1c[nH]c2ccccc12)C(=O)N[C@H]1CNC(=O)CNC(=O)[C@H](CO)NC(=O)CNC(=O)[C@H]([C@@H](C)CC)NC1=O` (some centres unmarked) [Dap9-Relacidamide A] ({Hexanoyl(4ξ-Me)}-[dS][dY][dW][dOrn][Orn]G[dOrn]W[Dap]IGSG; lactam 9-C), the “Minimum inhibitory concentration (MIC)” value with K. pneumoniae 2048 (2048) is 2 µg/mL (≈ 1.3 µM); in the assay on K. pneumoniae ATCC 13883 (ATCC 13883), 2 µg/mL (≈ 1.3 µM); in the assay with K. pneumoniae ATCC 11228 (ATCC 11228), 2 µg/mL (≈ 1.3 µM); in the assay on K. pneumoniae JS-123 (JS-123), 1 µg/mL (≈ 0.652 µM); in [1] (ATCC 25922), 2 µg/mL (≈ 1.3 µM); in [2] (ATCC 17961), 1 to 2 µg/mL. In addition, the “Minimum inhibitory concentration (MIC)” value is 0.5 to 1 µg/mL in assay [3] (ATCC 27853); >64 µg/mL in assay [4] (USA300); 1 to 2 µg/mL in the assay on P. aeruginosa M-120 (M-120); 1 to 2 µg/mL in the assay on P. aeruginosa PAO1 (PAO1); 2 to 4 µg/mL with P. aeruginosa NRZ-03961 (NRZ-03961); 4 µg/mL (≈ 2.61 µM) with A. baumannii ATCC 17978 (ATCC 17978). In addition, the “Minimum inhibitory concentration (MIC)” value in the assay on A. baumannii 2018-006 (2018-006) fell in the range of 2 to 4 µg/mL.
Take colistin [reference compound]: the “Minimum inhibitory concentration (MIC)” value in the assay with K. pneumoniae 2048 (K. pneumoniae 2048 clinical isolate) was 2 µg/mL; in the assay on K. pneumoniae ATCC 13883 (K. pneumoniae ATCC 13883) it was 1 µg/mL; in the assay on K. pneumoniae ATCC 11228 (K. pneumoniae ATCC 11228), ≤0.5 µg/mL; with K. pneumoniae JS-123 (K. pneumoniae JS-123 clinical isolate), ≤0.5 µg/mL; in assay [1] (E. coli ATCC 25922), 0.25 to 0.5 µg/mL; in assay [2] (A. baumannii ATCC 17961) it was ≤0.5 µg/mL. In addition, the “Minimum inhibitory concentration (MIC)” value in assay [3] (P. aeruginosa ATCC 27853) was 1 µg/mL; in [4] (S. aureus USA300 (Gram-positive)), >64 µg/mL; with P. aeruginosa M-120 (P. aeruginosa M-120 clinical isolate) it was 1 µg/mL; in the assay with P. aeruginosa PAO1 (P. aeruginosa PAO1), ≤0.5 µg/mL; in the assay with P. aeruginosa NRZ-03961 (P. aeruginosa NRZ-03961) it was <0.5 µg/mL; in the assay on A. baumannii MDR it was ≤0.5 µg/mL. Moreover, the “Minimum inhibitory concentration (MIC)” value in the assay on A. baumannii ATCC 17978 (A. baumannii ATCC 17978) was ≤0.5 µg/mL; in the assay on A. baumannii 2018-006 (A. baumannii 2018-006 clinical isolate), ≤0.5 µg/mL; in the assay on E. coli ATCC 25922 MCR-1, 2 to 4 µg/mL; in the assay on E. coli MCR-1, 2 to 4 µg/mL; in the assay on E. coli EQAS MCR-2 it was 2 to 4 µg/mL.
